In PubChem BioAssay (NCI):
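Cultured in 96-well plates, cells were exposed to test compound for 48 hours across five concentrations. The concentration for full growth arrest is given as TGI.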

What was measured:
Assay in all cases: inhibition of tumour cell growth, NCI panel, 48 h
HCC-2998 colon = system: HCC-2998 colon
HL-60(TB) leukemia = system: HL-60(TB) leukemia
SF-295 CNS = system: SF-295 CNS
HOP-18 NSCLC = system: HOP-18 NSCLC
UO-31 renal = system: UO-31 renal
IGROV1 ovarian = system: IGROV1 ovarian
NCI-H226 lung = system: NCI-H226 lung
K-562 leukemia = system: K-562 leukemia
SF-539 CNS = system: SF-539 CNS
786-0 renal = system: 786-0 renal
RXF 393 renal = system: RXF 393 renal
OVCAR-4 ovarian = system: OVCAR-4 ovarian
MALME-3M melanoma = system: MALME-3M melanoma
CAKI-1 renal = system: CAKI-1 renal
HOP-92 NSCLC = system: HOP-92 NSCLC
NCI-H23 lung = system: NCI-H23 lung
TK-10 renal = system: TK-10 renal
RPMI-8226 leukemia = system: RPMI-8226 leukemia
COLO 205 colon = system: COLO 205 colon
LOX IMVI melanoma = system: LOX IMVI melanoma
NCI-H460 lung = system: NCI-H460 lung
SK-MEL-5 melanoma = system: SK-MEL-5 melanoma
HOP-62 NSCLC = system: HOP-62 NSCLC
NCI-H522 lung = system: NCI-H522 lung
HT29 colon = system: HT29 colon
EKVX NSCLC = system: EKVX NSCLC
SN12C renal = system: SN12C renal
A549 NSCLC = system: A549 NSCLC
UACC-257 melanoma = system: UACC-257 melanoma
DMS 114 small cell lung = system: DMS 114 small cell lung
KM20L2 colon = system: KM20L2 colon
DMS 273 small cell lung = system: DMS 273 small cell lung
DLD-1 colon = system: DLD-1 colon
SNB-19 CNS = system: SNB-19 CNS
SW-620 colon = system: SW-620 colon
UACC-62 melanoma = system: UACC-62 melanoma
SF-268 CNS = system: SF-268 CNS
U251 CNS = system: U251 CNS
SK-MEL-28 melanoma = system: SK-MEL-28 melanoma
SR leukemia = system: SR leukemia
M19-MEL melanoma = system: M19-MEL melanoma
OVCAR-8 ovarian = system: OVCAR-8 ovarian
OVCAR-5 ovarian = system: OVCAR-5 ovarian
SK-OV-3 ovarian = system: SK-OV-3 ovarian
CCRF-CEM leukemia = system: CCRF-CEM leukemia
SK-MEL-2 melanoma = system: SK-MEL-2 melanoma
M14 melanoma = system: M14 melanoma
HCT-15 colon = system: HCT-15 colon
SNB-75 CNS = system: SNB-75 CNS
ACHN renal = system: ACHN renal
MOLT-4 leukemia = system: MOLT-4 leukemia
A498 renal = system: A498 renal
OVCAR-3 ovarian = system: OVCAR-3 ovarian
LXFL 529 NSCLC = system: LXFL 529 NSCLC
HCT-116 colon = system: HCT-116 colon
KM12 colon = system: KM12 colon
MDA-N = system: MDA-N
HS 578T breast = system: HS 578T breast
MDA-MB-231 breast = system: MDA-MB-231 breast
PC-3 prostate = system: PC-3 prostate
MDA-MB-435 = system: MDA-MB-435
BT-549 breast = system: BT-549 breast
T-47D breast = system: T-47D breast
DU-145 prostate = system: DU-145 prostate
SNB-78 CNS = system: SNB-78 CNS
MCF7 breast = system: MCF7 breast
NCI/ADR-RES ovarian = system: NCI/ADR-RES ovarian

COc1ccc(C2CCC(Cl)(OC)CC2C=O)cc1 (stereo not given)
TGI (HCC-2998 colon): > 100 µM
TGI (HL-60(TB) leukemia): > 100 µM
TGI (SF-295 CNS): > 100 µM
TGI (HOP-18 NSCLC): > 100 µM
TGI (UO-31 renal): > 100 µM
TGI (IGROV1 ovarian): > 100 µM
TGI (NCI-H226 lung): > 100 µM
TGI (K-562 leukemia): > 100 µM
TGI (SF-539 CNS): > 100 µM
TGI (786-0 renal): > 100 µM
TGI (RXF 393 renal): 43.9 µM
TGI (OVCAR-4 ovarian): > 100 µM
TGI (MALME-3M melanoma): > 100 µM
TGI (CAKI-1 renal): > 100 µM
TGI (HOP-92 NSCLC): > 100 µM
TGI (NCI-H23 lung): > 100 µM
TGI (TK-10 renal): > 100 µM
TGI (RPMI-8226 leukemia): > 100 µM
TGI (COLO 205 colon): > 100 µM
TGI (LOX IMVI melanoma): 43.7 µM
TGI (NCI-H460 lung): > 100 µM
TGI (SK-MEL-5 melanoma): > 100 µM
TGI (HOP-62 NSCLC): > 100 µM
TGI (NCI-H522 lung): > 100 µM
TGI (HT29 colon): > 100 µM
TGI (EKVX NSCLC): > 100 µM
TGI (SN12C renal): > 100 µM
TGI (A549 NSCLC): > 100 µM
TGI (UACC-257 melanoma): > 100 µM
TGI (DMS 114 small cell lung): 66.7 µM
TGI (KM20L2 colon): > 100 µM
TGI (DMS 273 small cell lung): > 100 µM
TGI (DLD-1 colon): > 100 µM
TGI (SNB-19 CNS): > 100 µM
TGI (SW-620 colon): > 100 µM
TGI (UACC-62 melanoma): > 100 µM
TGI (SF-268 CNS): 97.3 µM
TGI (U251 CNS): > 100 µM
TGI (SK-MEL-28 melanoma): > 100 µM
TGI (SR leukemia): > 100 µM
TGI (M19-MEL melanoma): > 100 µM
TGI (OVCAR-8 ovarian): > 100 µM
TGI (OVCAR-5 ovarian): > 100 µM
TGI (SK-OV-3 ovarian): > 100 µM
TGI (CCRF-CEM leukemia): > 100 µM
TGI (SK-MEL-2 melanoma): > 100 µM
TGI (M14 melanoma): > 100 µM
TGI (HCT-15 colon): > 100 µM
TGI (SNB-75 CNS): > 100 µM
TGI (ACHN renal): > 100 µM
TGI (MOLT-4 leukemia): > 100 µM
TGI (A498 renal): > 100 µM
TGI (OVCAR-3 ovarian): > 100 µM
TGI (LXFL 529 NSCLC): > 100 µM
TGI (HCT-116 colon): > 100 µM
TGI (KM12 colon): > 100 µM

CS(=O)(=O)OCCN(CCOS(C)(=O)=O)c1ccc(C=Nc2ccc3oc(=O)ccc3c2)cc1
TGI (HCC-2998 colon): 7.77 µM
TGI (HL-60(TB) leukemia): 41.3 µM
TGI (MDA-N): 35.8 µM
TGI (SF-295 CNS): 42.2 µM
TGI (HS 578T breast): 92.1 µM
TGI (UO-31 renal): 2.96 µM
TGI (IGROV1 ovarian): 53.1 µM
TGI (NCI-H226 lung): 21.9 µM
TGI (MDA-MB-231 breast): 80.8 µM
TGI (K-562 leukemia): > 100 µM
TGI (SF-539 CNS): 35.3 µM
TGI (PC-3 prostate): 80.7 µM
TGI (786-0 renal): 3.5 µM
TGI (RXF 393 renal): 1.89 µM
TGI (OVCAR-4 ovarian): 41 µM
TGI (MALME-3M melanoma): 23.8 µM
TGI (CAKI-1 renal): 9.11 µM
TGI (HOP-92 NSCLC): 47.1 µM
TGI (NCI-H23 lung): 17.5 µM
TGI (TK-10 renal): 9.22 µM
TGI (RPMI-8226 leukemia): 49.1 µM
TGI (COLO 205 colon): 10.3 µM
TGI (LOX IMVI melanoma): 29.9 µM
TGI (NCI-H460 lung): 5.38 µM
TGI (SK-MEL-5 melanoma): 32.8 µM
TGI (HOP-62 NSCLC): 34.1 µM
TGI (NCI-H522 lung): 0.828 µM
TGI (HT29 colon): 53.6 µM
TGI (EKVX NSCLC): 36.5 µM
TGI (SN12C renal): > 70.5 µM
TGI (A549 NSCLC): 35.3 µM
TGI (UACC-257 melanoma): 26.9 µM
TGI (DMS 114 small cell lung): 22.3 µM
TGI (KM20L2 colon): > 100 µM
TGI (SNB-19 CNS): 80.7 µM
TGI (SW-620 colon): > 83.1 µM
TGI (MDA-MB-435): 26.1 µM
TGI (UACC-62 melanoma): 19.8 µM
TGI (SF-268 CNS): 74.3 µM
TGI (U251 CNS): 41.9 µM
TGI (BT-549 breast): 45.7 µM
TGI (SK-MEL-28 melanoma): 64.4 µM
TGI (SR leukemia): 40.1 µM
TGI (M19-MEL melanoma): 39 µM
TGI (OVCAR-8 ovarian): 49.9 µM
TGI (OVCAR-5 ovarian): 28.9 µM
TGI (SK-OV-3 ovarian): 9.92 µM
TGI (T-47D breast): 72.8 µM
TGI (CCRF-CEM leukemia): 31.8 µM
TGI (DU-145 prostate): 35.9 µM
TGI (SK-MEL-2 melanoma): 37.7 µM
TGI (M14 melanoma): 31.6 µM
TGI (HCT-15 colon): 37.9 µM
TGI (SNB-75 CNS): 26.1 µM
TGI (ACHN renal): 4.91 µM
TGI (SNB-78 CNS): 12.5 µM
TGI (MOLT-4 leukemia): 15.4 µM
TGI (MCF7 breast): > 93.5 µM
TGI (A498 renal): 4.67 µM
TGI (OVCAR-3 ovarian): 24.1 µM
TGI (LXFL 529 NSCLC): 36.4 µM
TGI (NCI/ADR-RES ovarian): 62.5 µM
TGI (HCT-116 colon): > 100 µM
TGI (KM12 colon): 30.3 µM
